Results: publication PMC7065950 (Nature biotechnology, 2020)

Tests used:
Format in all cases: in vivo, C57BL/6 mice
[1] = tested on: antigen-specific CD4 T cells; assay: CD4 T cell response by intracellular cytokine staining of blood; conditions: LP delivered as SNP-7/8a; × = immunogenic
[2] = tested on: antigen-specific CD8 T cells; assay: CD8 T cell response by intracellular cytokine staining of blood; conditions: LP delivered as SNP-7/8a; × = immunogenic; listed as M07
B16-F10 tumor cells = assay: B16-F10 therapeutic tumor model; conditions: B16-F10 SC implanted

Sequence	CD4 response, present study, SNP-7/8a [1]	CD8 response, present study, SNP-7/8a [2]	Tumor control, neoantigen as SNP-7/8a by IV route (B16-F10 tumor cells; with anti-PD-L1 IP)	Tumor control, neoantigen as LP + polyIC by SC route (B16-F10 tumor cells; days 1, 8 and 15 with anti-PD-L1 IP)
TAKSVMCTYSPPLDKLFCQLAKTCPVQ [Compound B16-M07]	no significant CD4 T cell response	induced a CD8 T cell response	improved control of tumor growth	
ELINFKRKRVAAFQKNLIEMSELEIKH [Compound B16-M39]				no efficacy observed
